Measurements published in patent publication US20240408107A1, “LACTAM PYRROLIDINE-PYRAZOLES AS PYRUVATE KINASE ACTIVATORS” (Global Blood Therapeutics, Inc., priority 2021, published 2024).

Tests used:
[1] = system: PK activity, ATP levels, RBC parameters; details: mouse model of beta-thalassemia; cited from earlier work
[2] = target: T1, human pyruvate kinase R (PKR) (Homo sapiens, UniProt P30613); experiment: Biochemical assay for activation of pyruvate kinase R (Kinase-Glo luminescence, ATP generation); details: for AC50: PKR biochemical assay, 0.1 nM PKR; for Emax: maximal activation level relative to the activation level achieved by AG-348 @ 10 μM
T1 construct: Human pyruvate kinase R (PKR), residues 14-574; 6xHis (N, cleaved yes); 8xArg (N, cleaved yes); SUMO (N, cleaved yes); host or cells: E. coli
T1 sequence (P30613 14-574): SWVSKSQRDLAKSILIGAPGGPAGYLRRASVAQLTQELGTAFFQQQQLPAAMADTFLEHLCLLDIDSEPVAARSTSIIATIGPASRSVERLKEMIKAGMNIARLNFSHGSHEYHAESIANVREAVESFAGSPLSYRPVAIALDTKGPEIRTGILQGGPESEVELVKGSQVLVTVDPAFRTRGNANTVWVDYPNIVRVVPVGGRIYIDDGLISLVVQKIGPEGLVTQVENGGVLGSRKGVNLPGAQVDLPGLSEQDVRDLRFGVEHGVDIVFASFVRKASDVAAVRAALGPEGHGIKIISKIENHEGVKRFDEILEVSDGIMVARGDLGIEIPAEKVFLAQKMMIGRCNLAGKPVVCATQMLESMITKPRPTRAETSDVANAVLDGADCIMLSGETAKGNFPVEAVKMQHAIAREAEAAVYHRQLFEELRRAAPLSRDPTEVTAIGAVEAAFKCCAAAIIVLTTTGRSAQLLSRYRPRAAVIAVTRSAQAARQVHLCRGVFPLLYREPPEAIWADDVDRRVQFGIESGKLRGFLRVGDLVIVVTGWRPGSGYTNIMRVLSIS
Protocol: Human pyruvate kinase R (PKR), residues 14-574, and human pyruvate kinase M2, residues 1-531, were cloned into expression plasmids and obtained from ATUM Bio (Newark, CA). Proteins were translated as fusions with 6×-His,8×-Arg, and SUMO at the N-terminus. A third construct of human PKR was truncated, residues 50-574, and similarly cloned for use in crystallography experiments. All proteins were cloned, expressed in E. coli, and purified using similar protocols. Cells were grown at 30° C. in Luria-Bertani broth supplemented with 0.4% glucose to OD600=0.8 and induced with 0.4 mM IPTG at 16° C. for 18 hours. Cells were harvested by centrifugation, resuspended in 50 mM potassium phosphate pH 8.0, 500 mM NaCl, 25 mM imidazole pH 8.0, and 3 mM β-mercaptoethanol. Cells were lysed using a LM20 microfluidizer from Microfluidics (Westwood, MA). The crude lysate was immediately supplemented with 0.2 mM phenylmethylsulfonyl fluoride (PMSF) and centrifuged at 20,000 g for 20 minutes. The soluble fraction was subsequently incubated with 2 mL Ni-NTA (GE Healthcare) per 1,000 ODs for 1 hour at 4° C. Following incubation with the Ni-NTA resin, lysate was removed by pelleting resin at 2,500 g for 3 minutes and washed 3 times with 9 bed volumes of 50 mM potassium phosphate pH 8.0, 500 mM NaCl, 25 mM imidazole, and 3 mM β-mercaptoethanol. Following the batch wash Ni-NTA resin was loaded onto a gravity column and His-tagged protein was eluted with 6 bed volumes of 10 mM Tris/HCl pH 8.0, 200 mM NaCl, 500 mM imidazole, and 3 mM β-mercaptoethanol. Eluted protein was dialyzed overnight against 10 mM Tris/HCl pH 8.0, 200 mM NaCl, and 1 mM DTT and the 6×-His-8×-Arg-SUMO-tag was cleaved using a 20:1 molar ratio of protein:3C protease. The protein was purified by anion exchange chromatography on a HiTrapQ or MonoQ 10/100 GL column (GE Healthcare) via a linear NaCl gradient and twice by size exclusion chromatography using a Superdex S200 26/60 column (GE Healthcare) run in 10 mM Tris/HCl pH 8.0, 200 mM NaCl, 10 mM MgCl2, 1 mM DTT. Proteins were concentrated to ˜12 mg/mL for crystallization and flash frozen for storage.
Activation of pyruvate kinase R (PKR) and pyruvate kinase M2 (PKM2) were measured using a luminescence based measurement of ATP generation and the Kinase-Glo luminescent kinase reagent kit. 0.1 nM of PKR or PKM2 was incubated for 1 hour with 0.3 mM ADP, 2 mM FBP, 1% DMSO, compound and Assay Buffer mix (500 mM Tris/HCl pH 7.5, 500 mM NaCl, 50 mM MgCl2, BSA, and 2 mM DTT, in a total reaction volume of 30 uL. After one hour PEP was added to the reaction at a final concentration of 0.1 mM and incubated for another hour at room temperature. 30 uL of KinaseGlo reagent was added and the reaction was incubated for 15 minutes. Endpoint luminescence data was measured using an EnVision plate reader (PerkinElmer). The assay results are provided in Table 2 for PKR.

[3] = target: T2, Pyruvate Kinase M2 (PKM2) in H1299 cells (Homo sapiens, UniProt P14618); experiment: Cell based assay for activation of pyruvate kinase M2 in lung carcinoma cell line (H1299, NADH/LDH coupled assay of lysate); details: PKM2 cellular assay; for AC50: H1299 cells, 90 minutes with compound; for PKM2 % activation: maximal activation level relative to the activation level achieved by AG-348 @ 10 μM
T2 construct: endogenous in cells; host or cells: H1299 cells
T2 sequence (P14618 2-531 limits assumed): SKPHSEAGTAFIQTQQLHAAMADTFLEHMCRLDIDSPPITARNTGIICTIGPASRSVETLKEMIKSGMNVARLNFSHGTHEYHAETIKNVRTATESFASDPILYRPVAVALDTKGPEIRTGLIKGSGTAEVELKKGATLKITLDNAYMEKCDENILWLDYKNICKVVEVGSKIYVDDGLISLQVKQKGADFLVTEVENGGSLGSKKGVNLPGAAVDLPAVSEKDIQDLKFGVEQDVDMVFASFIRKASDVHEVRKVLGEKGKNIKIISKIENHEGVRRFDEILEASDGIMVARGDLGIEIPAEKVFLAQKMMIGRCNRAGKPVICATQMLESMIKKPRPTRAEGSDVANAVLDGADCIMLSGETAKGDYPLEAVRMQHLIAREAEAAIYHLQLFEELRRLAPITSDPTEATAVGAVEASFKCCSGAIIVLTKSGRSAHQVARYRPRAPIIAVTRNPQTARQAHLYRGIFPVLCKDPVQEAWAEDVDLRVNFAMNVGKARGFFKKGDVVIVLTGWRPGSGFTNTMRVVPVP
Protocol: H1299 cells were seeded in 96-well plates at 2,000 cells/well (100 uL). Treated plates were incubated overnight at 37° C. with 5% CO2. Compounds were diluted in complete media and added to cells in the presence of 1% DMSO. Cells were incubated with compound for 90 minutes at 37° C. and 5% CO2 before washing three times with PBS to remove residual compound and then lysed in lysis buffer (Cell Signaling). Cell lysate was analyzed using the NADH coupled assay described below with a reaction mixture of 180 uM NADH, 2 mM ADP, 0.5 units of LDH and 0.5 mM of PEP. PKM2 activity was measured at steady state using a coupled enzyme activation system based on NADH consumption. PKM2 produces pyruvate and the coupled system uses lactate dehydrogenase (LDH) to reduce pyruvate to lactate with the concomitant oxidation of NADH to NAD^+. Conversion of NADH to NAD^+ was monitored using a SPECTROstar Nano plate reader (BMG Labtech) at a wavelength of 340 nm and subtraction of background absorbance measured at 750 nm. The change in NADH absorbance after PEP addition was monitored and slope obtained by subtracting baseline at 750 nm followed by least squares fitting to a simple linear regression model. A 10-point curve was generated to calculate the AC50 values by fitting the rates of NADH consumption against increasing concentration of compound.

| SMILES | AC50 [2] | Emax [2] | AC50 [3] | PKM2 % activation [3] | PK activity and ATP levels [1] | RBC parameters [1] |
| --- | --- | --- | --- | --- | --- | --- |
| O=C(c1ccc(NS(=O)(=O)c2cccc3cccnc23)cc1)N1CCN(CC2CC2)CC1 [AG-348, Mitapivat] |  |  |  |  | increased | improved |
| O=C1COc2c(F)cccc2C(C(=O)N2Cc3cn(S(=O)(=O)c4cnn(CC(F)F)c4)nc3C2)N1 (stereo not drawn) [Compound 7, 5-(2-{[1-(2,2-difluoroethyl)-1H-pyrazol-4-yl]sulfonyl}-2H,4H,5H,6H-pyrrolo[3,4-c]pyrazole-5-carbonyl)-9-fluoro-2,3,4,5-tetrahydro-1,4-benzoxazepin-3-one] | 1800 nM | 66% |  |  |  |  |
| O=C1Nc2ccccc2C1CC(=O)N1Cc2cn(S(=O)(=O)c3ccc4ncsc4c3)nc2C1 (stereo not drawn) [Compound 9, 3-{2-[2-(1,3-benzothiazole-6-sulfonyl)-2H,4H,5H,6H-pyrrolo[3,4-c]pyrazol-5-yl]-2-oxoethyl}-2,3-dihydro-1H-indol-2-one] | 28 nM | 161% | 100 nM | 87% |  |  |
| O=C1Nc2ccccc2C1CC(=O)N1Cc2cn(S(=O)(=O)c3ccc(OC(F)F)cc3)nc2C1 (stereo not drawn) [Compound 10, 3-(2-{2-[4-(difluoromethoxy)benzenesulfonyl]-2H,4H,5H,6H-pyrrolo[3,4-c]pyrazol-5-yl}-2-oxoethyl)-2,3-dihydro-1H-indol-2-one] | 78 nM | 129% | 14 nM | 165% |  |  |
| O=C(CN1C(=O)Cc2ccccc21)N1Cc2cn(S(=O)(=O)c3ccc(OC(F)F)cc3)nc2C1 [Compound 11, 1-(2-{2-[4-(difluoromethoxy)benzenesulfonyl]-2H,4H,5H,6H-pyrrolo[3,4-c]pyrazol-5-yl}-2-oxoethyl)-2,3-dihydro-1H-indol-2-one] | 1700 nM | 77% |  |  |  |  |
| O=C1COc2ccccc2C(C(=O)N2Cc3cn(S(=O)(=O)c4ccc(OC(F)F)cc4)nc3C2)N1 (stereo not drawn) [Compound 12, 5-{2-[4-(difluoromethoxy)benzenesulfonyl]-2H,4H,5H,6H-pyrrolo[3,4-c]pyrazole-5-carbonyl}-2,3,4,5-tetrahydro-1,4-benzoxazepin-3-one] | 210 nM | 91% |  |  |  |  |

More lines, main results first:

| AC50 [2] | Emax [2] | AC50 [3] | PKM2 % activation [3] | SMILES | PK activity and ATP levels [1] | RBC parameters [1] |
| --- | --- | --- | --- | --- | --- | --- |
| 230 nM | 212% |  |  | O=C1Nc2ccccc2C1CC(=O)N1Cc2cn(S(=O)(=O)c3cnn(CC(F)F)c3)nc2C1 (stereo not drawn) [Compound 1, 3-[2-(2-{[1-(2,2-difluoroethyl)-1H-pyrazol-4-yl]sulfonyl}-2H,4H,5H,6H-pyrrolo[3,4-c]pyrazol-5-yl)-2-oxoethyl]-2,3-dihydro-1H-indol-2-one] |  |  |
| 410 nM | 32% |  |  | O=C(CN1C(=O)Cc2ccccc21)N1Cc2cn(S(=O)(=O)c3cnn(CC(F)F)c3)nc2C1 [Compound 2, 1-[2-(2-{[1-(2,2-difluoroethyl)-1H-pyrazol-4-yl]sulfonyl}-2H,4H,5H,6H-pyrrolo[3,4-c]pyrazol-5-yl)-2-oxoethyl]-2,3-dihydro-1H-indol-2-one] |  |  |
| 1800 nM | 60% |  |  | O=C(Cn1c(=O)oc2ccccc21)N1Cc2cn(S(=O)(=O)c3cnn(CC(F)F)c3)nc2C1 [Compound 3, 3-[2-(2-{[1-(2,2-difluoroethyl)-1H-pyrazol-4-yl]sulfonyl}-2H,4H,5H,6H-pyrrolo[3,4-c]pyrazol-5-yl)-2-oxoethyl]-2,3-dihydro-1,3-benzoxazol-2-one] |  |  |
| 10000 nM | 78% |  |  | O=C(Cn1c(=O)[nH]c2ccccc21)N1Cc2cn(S(=O)(=O)c3cnn(CC(F)F)c3)nc2C1 [Compound 4, 1-[2-(2-{[1-(2,2-difluoroethyl)-1H-pyrazol-4-yl]sulfonyl}-2H,4H,5H,6H-pyrrolo[3,4-c]pyrazol-5-yl)-2-oxoethyl]-2,3-dihydro-1H-1,3-benzodiazol-2-one] |  |  |
| 490 nM | 91% |  |  | O=C1COc2ccccc2C(C(=O)N2Cc3cn(S(=O)(=O)c4cnn(CC(F)F)c4)nc3C2)N1 (stereo not drawn) [Compound 5, 5-(2-{[1-(2,2-difluoroethyl)-1H-pyrazol-4-yl]sulfonyl}-2H,4H,5H,6H-pyrrolo[3,4-c]pyrazole-5-carbonyl)-2,3,4,5-tetrahydro-1,4-benzoxazepin-3-one] |  |  |
| 4400 nM | 84% |  |  | O=C1Cc2ccccc2C(C(=O)N2Cc3cn(S(=O)(=O)c4cnn(CC(F)F)c4)nc3C2)N1 (stereo not drawn) [Compound 6, 1-(2-{[1-(2,2-difluoroethyl)-1H-pyrazol-4-yl]sulfonyl}-2H,4H,5H,6H-pyrrolo[3,4-c]pyrazole-5-carbonyl)-1,2,3,4-tetrahydroisoquinolin-3-one] |  |  |
| 1900 nM | 95% |  |  | CC1(CC(=O)N2Cc3cn(S(=O)(=O)c4cnn(CC(F)F)c4)nc3C2)C(=O)Nc2ccccc21 (stereo not drawn) [Compound 8, 3-[2-(2-{[1-(2,2-difluoroethyl)-1H-pyrazol-4-yl]sulfonyl}-2H,4H,5H,6H-pyrrolo[3,4-c]pyrazol-5-yl)-2-oxoethyl]-3-methyl-2,3-dihydro-1H-indol-2-one] |  |  |
